In PubChem BioAssay AID2060506 (Molecular Pharmacology Branch, DTP, NCI, 2025):
“And” between values parts separate entries of the source, which are not always exact repeats. Equal entries are not always repeated.

System: 598228-144-R-J1-PDC complex spheroid viability
Test: Anticancer human tumor 598228-144-R-J1-PDC patient-derived serous endometrial adenocarcinoma cell line growth inhibition [GQUAD]
Conditions: for viability, T/C: stronger effect = lower value
Source text: DNA G-quadruplex Stabilizer Agents in Combinations in Complex Spheroids
A high-throughput screen of multi-cell type tumor spheroids was designed to identify active combinations of DNA G-quadruplex stabilizer agents and targeted small molecules. Complex spheroids include a stromal component modeled by human endothelial cells (HUVEC) and fibroblasts modeled by human mesenchymal stem cells (MSCs). The concentration ranges selected for each drug and investigational agent were based upon clinically achievable concentrations if the clinical Cmax of the agent was known.
Compounds. The drugs and investigational agents: pidnarulex (CX-5461; NSC782164), APTO-253 (NSC789042), BRACO-19 (NSC847499), peposertib (NSC802822), ceralasertib (NSC780249), elimusertib (NSC800525), camonsertib (NSC841442), AZD-1390 (NSC803789), olaparib (NSC753686), talazoparib (NSC767125), ART-558 (NSC835418), sotorasib (NSC818433), MRTX-1133 (NSC836407), SN-38 (NSC673596), topotecan (NSC609699), etoposide (NSC141540), doxorubicin (NSC123127), gemcitabine (NSC613327), 5-fluorouracil (NSC19893), paclitaxel (NSC125973), vemurafenib (NSC761431), panobinostat (NSC761190), R-306465 (JNJ-16241199; NSC773264), adavosertib (NSC754352), TP-3654 (NSC805149), carboplatin (NSC241240), KSQ-4279 (NSC840948), and staurosporine (NSC755774) were obtained from the National Cancer Institute (NCI) Developmental Therapeutics Program Chemical Repository (34). The FDA-approved anticancer drug set is available from the NCI Developmental Therapeutics Program. […] The stock solutions were prepared in dimethyl sulfoxide (DMSO, Sigma-Aldrich, St. Louis, MO, cat. D2650) at 800-fold the tested concentration and stored at -70 degrees C prior to their use. All drugs and investigational agents were tested over a range starting from a high concentration at or near the clinical Cmax and decreasing in half-log increments. If the clinical Cmax for an agent had not been determined, the highest concentration tested was 10 microM.
2.3 Cell Culture. All cells were maintained in an incubator at 37 degrees C and 5% CO2 with 95% humidity. The PDC lines were cultured according to standard operating procedures established by the NCI PDMR. All PDCs were thawed and cultured in Matrigel-coated flasks prepared with a working solution of 1X Ham's F-12 nutrient mix, without supplementation (Invitrogen, cat. 11765054), 100 U/mL penicillin-streptomycin (Invitrogen, cat. 15140122), and 2.5% Matrigel (Corning Inc., cat. 354248) for the first three passages. The 857933-349-R-J2-PDC line was cultured in 6C/Colon 1B media, which includes advanced DMEM/F-12 (Thermo Fisher Scientific, cat. 12634028), 10 mM HEPES (Thermo Fisher Scientific, cat. 15630080), 1X GlutaMAX supplement (Thermo Fisher Scientific, cat. 35050061), 0.1 mg/mL primocin (InvivoGen, cat. ant-pm-2), 10% defined fetal bovine serum, heat inactivated (HyClone Laboratories Inc., cat. SH30070.03HI), 50% L-WRN conditioned media (ATCC, cat. CRL-3276), 1.25 mM N-Acetyl-L-cysteine (Sigma-Aldrich, cat. A9165), 10 mM nicotinamide (Sigma-Aldrich, cat. N0636), 1X B-27 supplement (Thermo Fisher Scientific, cat. 17504044), 1X N-2 supplement (Thermo Fisher Scientific, cat. 17502048), 10 microM Y-27632 dihydrochloride (Tocris Bioscience, cat. 1254), and 50 ng/mL human EGF recombinant protein (Thermo Fisher Scientific, cat. PHG0311). The 485176-168-R4-J1-PDC line was cultured in Panc media, which includes all 6C/Colon 1B media components plus 100 ng/mL human FGF-10 (Thermo Fisher Scientific, cat. 100-26), 500 nM SB-431542 (Selleckchem, cat. S1067), and gastrin (Tocris, cat. 3006).
[…]

[1] = curve of first compound, second compound 0.0316 µM
[2] = curve of first compound, second compound 0.1 µM
[3] = curve of first compound, second compound 0.316 µM
[4] = curve of first compound, second compound 1 µM
[5] = curve of first compound, second compound 3.16 µM
[6] = curve of first compound, second compound 10 µM
[7] = second compound 0.0316 µM, first compound 0.0316 µM
[8] = second compound 0.0316 µM, first compound 0.1 µM
[9] = second compound 0.0316 µM, first compound 0.316 µM
[10] = second compound 0.0316 µM, first compound 1 µM
[11] = second compound 0.0316 µM, first compound 3.16 µM
[12] = second compound 0.0316 µM, first compound 10 µM
[13] = second compound 0.1 µM, first compound 0.0316 µM
[14] = second compound 0.1 µM, first compound 0.1 µM
[15] = second compound 0.1 µM, first compound 0.316 µM
[16] = second compound 0.1 µM, first compound 1 µM
[17] = second compound 0.1 µM, first compound 3.16 µM
[18] = second compound 0.1 µM, first compound 10 µM
[19] = second compound 0.316 µM, first compound 0.0316 µM
[20] = second compound 0.316 µM, first compound 0.1 µM
[21] = second compound 0.316 µM, first compound 0.316 µM
[22] = second compound 0.316 µM, first compound 1 µM
[23] = second compound 0.316 µM, first compound 3.16 µM
[24] = second compound 0.316 µM, first compound 10 µM
[25] = second compound 1 µM, first compound 0.0316 µM
[26] = second compound 1 µM, first compound 0.1 µM
[27] = second compound 1 µM, first compound 0.316 µM
[28] = second compound 1 µM, first compound 1 µM
[29] = second compound 1 µM, first compound 3.16 µM
[30] = second compound 1 µM, first compound 10 µM
[31] = second compound 3.16 µM, first compound 0.0316 µM
[32] = second compound 3.16 µM, first compound 0.1 µM
[33] = second compound 3.16 µM, first compound 0.316 µM
[34] = second compound 3.16 µM, first compound 1 µM
[35] = second compound 3.16 µM, first compound 3.16 µM
[36] = second compound 3.16 µM, first compound 10 µM
[37] = second compound 10 µM, first compound 0.0316 µM
[38] = second compound 10 µM, first compound 0.1 µM
[39] = second compound 10 µM, first compound 0.316 µM
[40] = second compound 10 µM, first compound 1 µM
[41] = second compound 10 µM, first compound 3.16 µM
[42] = second compound 10 µM, first compound 10 µM
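Note: spheroids exposed to the agents for one week before reading.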
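Throughout, for viability, T/C: percent of vehicle DMSO control viability so 100% = untreated growth.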

COc1ncnc(C2CC2)c1-c1ncc2cnn(Cc3ccc(-c4nc(C(F)(F)F)cn4C(C)C)cc3)c2n1
viability, T/C (compound 0.0316 µM): 112% and 120% and 109%
viability, T/C (compound 0.1 µM): 99.5% and 93.3% and 79.8%
viability, T/C (compound 0.316 µM): 107% and 103% and 102%
viability, T/C (compound 1 µM): 106% and 104% and 102%
viability, T/C (compound 3.16 µM): 97.8% and 112% and 113%
viability, T/C (compound 10 µM): 105% and 117% and 89%
IC50 (curve of compound): > 10000 nM

C=CCn1c(=O)c2cnc(Nc3ccc(N4CCN(C)CC4)cc3)nc2n1-c1cccc(C(C)(C)O)n1 + Cc1cnc(CNC(=O)c2c(=O)c3ccc(N4CCCN(C)CC4)nc3n3c2sc2ccccc23)cn1
IC50 [1]: 10000 nM
IC50 [2]: 445 nM
IC50 [3]: 1220 nM
IC50 [4]: 655 nM
IC50 [5]: < 31.6 nM
IC50 [6]: < 31.6 nM
viability, T/C [7]: 76%
viability, T/C [8]: 95%
viability, T/C [9]: 61.1%
viability, T/C [10]: 44.1%
viability, T/C [11]: 45.2%
viability, T/C [12]: 61.6%
viability, T/C [13]: 82.7%
viability, T/C [14]: 74.3%
viability, T/C [15]: 51.7%
viability, T/C [16]: 45.5%
viability, T/C [17]: 43.7%
viability, T/C [18]: 38%
viability, T/C [19]: 71.4%
viability, T/C [20]: 74.5%
viability, T/C [21]: 65.9%
viability, T/C [22]: 52.5%
viability, T/C [23]: 40.6%
viability, T/C [24]: 42.6%
viability, T/C [25]: 86.5%
viability, T/C [26]: 55.4%
viability, T/C [27]: 55.3%
viability, T/C [28]: 60.3%
viability, T/C [29]: 41.6%
viability, T/C [30]: 39.8%
viability, T/C [31]: 50.8%
viability, T/C [32]: 47.6%
viability, T/C [33]: 42.3%
viability, T/C [34]: 41%
viability, T/C [35]: 52.5%
viability, T/C [36]: 41.1%
viability, T/C [37]: 24.5%
viability, T/C [38]: 42.1%
viability, T/C [39]: 19.2%
viability, T/C [40]: 0.53%
viability, T/C [41]: 0.58%
viability, T/C [42]: 21.5%

C=CCn1c(=O)c2cnc(Nc3ccc(N4CCN(C)CC4)cc3)nc2n1-c1cccc(C(C)(C)O)n1 + CN(C)c1ccc(Nc2c3ccc(NC(=O)CCN4CCCC4)cc3nc3cc(NC(=O)CCN4CCCC4)ccc23)cc1
IC50 [1]: 913 nM
IC50 [2]: 1410 nM
IC50 [3]: > 10000 nM
IC50 [4]: 2290 nM
IC50 [5]: 611 nM
IC50 [6]: 233 nM
viability, T/C [7]: 85.4%
viability, T/C [8]: 99.5%
viability, T/C [9]: 65%
viability, T/C [10]: 44.2%
viability, T/C [11]: 53.7%
viability, T/C [12]: 48.2%
viability, T/C [13]: 109%
viability, T/C [14]: 97%
viability, T/C [15]: 74.4%
viability, T/C [16]: 47%
viability, T/C [17]: 50.9%
viability, T/C [18]: 45.3%
viability, T/C [19]: 107%
viability, T/C [20]: 83.6%
viability, T/C [21]: 54%
viability, T/C [22]: 52.5%
viability, T/C [23]: 51.7%
viability, T/C [24]: 52%
viability, T/C [25]: 103%
viability, T/C [26]: 79.3%
viability, T/C [27]: 67.9%
viability, T/C [28]: 50.8%
viability, T/C [29]: 47.6%
viability, T/C [30]: 47.7%
viability, T/C [31]: 131%
viability, T/C [32]: 88.3%
viability, T/C [33]: 63.3%
viability, T/C [34]: 32.1%
viability, T/C [35]: 46.1%
viability, T/C [36]: 21.9%
viability, T/C [37]: 88.6%
viability, T/C [38]: 72.8%
viability, T/C [39]: 39.8%
viability, T/C [40]: 21.7%
viability, T/C [41]: 8.8%
viability, T/C [42]: 4.75%

CC1COCCN1c1cc(C2(S(C)(=N)=O)CC2)nc(-c2ccnc3[nH]ccc23)n1 (stereo not given)
viability, T/C (compound 0.0316 µM): 91.8% and 116% and 77.8%
viability, T/C (compound 0.1 µM): 83.7% and 108% and 99.1%
viability, T/C (compound 0.316 µM): 88.9% and 94.8% and 83.4%
viability, T/C (compound 1 µM): 77.9% and 77.5% and 88.2%
viability, T/C (compound 3.16 µM): 60.3% and 46.7% and 97.7%
viability, T/C (compound 10 µM): 39.3% and 49.6% and 47.7%
IC50 (curve of compound): 5530 nM and 5370 nM and 9390 nM

CC1COCCN1c1cc(C2(S(C)(=N)=O)CC2)nc(-c2ccnc3[nH]ccc23)n1 (stereo not given) + CN(C)c1ccc(Nc2c3ccc(NC(=O)CCN4CCCC4)cc3nc3cc(NC(=O)CCN4CCCC4)ccc23)cc1
IC50 [1]: 2870 nM
IC50 [2]: 8670 nM
IC50 [3]: > 10000 nM
IC50 [4]: > 10000 nM
IC50 [5]: > 10000 nM
IC50 [6]: 1730 nM
viability, T/C [7]: 91.7%
viability, T/C [8]: 117%
viability, T/C [9]: 102%
viability, T/C [10]: 81.5%
viability, T/C [11]: 46.5%
viability, T/C [12]: 47%
viability, T/C [13]: 97.7%
viability, T/C [14]: 122%
viability, T/C [15]: 98.7%
viability, T/C [16]: 98.3%
viability, T/C [17]: 62.7%
viability, T/C [18]: 48.3%
viability, T/C [19]: 97.1%
viability, T/C [20]: 136%
viability, T/C [21]: 85%
viability, T/C [22]: 61.8%
viability, T/C [23]: 61.6%
viability, T/C [24]: 45.9%
viability, T/C [25]: 125%
viability, T/C [26]: 96.6%
viability, T/C [27]: 103%
viability, T/C [28]: 70.8%
viability, T/C [29]: 69.2%
viability, T/C [30]: 60.1%
viability, T/C [31]: 125%
viability, T/C [32]: 89.2%
viability, T/C [33]: 99.4%
viability, T/C [34]: 69.4%
viability, T/C [35]: 61.7%
viability, T/C [36]: 57.7%
viability, T/C [37]: 95.8%
viability, T/C [38]: 88.5%
viability, T/C [39]: 89.9%
viability, T/C [40]: 64.7%
viability, T/C [41]: 33.9%
viability, T/C [42]: 26.6%
